In ChEMBL document CHEMBL5370597, “Fungal Duel between Penicillium brasilianum and Aspergillus nomius Results in Dual Induction of Miktospiromide A and Kitrinomycin A” (J Nat Prod, 2023):
Values after ≈ are worked out from the molar mass of the structure shown. Active and inactive are the calls of the source. No cut-off for these calls is given here.

How the values were obtained:
[1] = tested on: Staphylococcus aureus; assay: Antibacterial activity against Staphylococcus aureus ATCC 25923 assessed as bacterial growth inhibition incubated for 48 hrs by resazurin staining based microplate reader assay; assay type: functional
[2] = tested on: Bacillus subtilis; assay: Antibacterial activity against Bacillus subtilis ATCC 6633 assessed as bacterial growth inhibition incubated for 48 hrs by resazurin staining based microplate reader assay; assay type: functional
[3] = tested on: Escherichia coli; assay: Antibacterial activity against Escherichia coli ATCC 25922 assessed as bacterial growth inhibition incubated for 48 hrs by resazurin staining based microplate reader assay; assay type: functional
[4] = tested on: Giardia intestinalis; assay: Anti-protozoal activity against Giardia duodenalis 713 assessed as inhibition of protozoal growth measured after 72 hrs under anaerobic conditions; assay type: functional
[5] = tested on: Penicillium brasilianum; assay: Antifungal activity against Penicillium brasilianum MST-FP1927 assessed as fungal growth rate at 20 ug by disc diffusion assay; assay type: functional, organism-based; conditions: dose 20.0 µg
[6] = Cytotoxicity against mouse NS-1 cells incubated for 72 hrs by resazurin staining based microplate reader assay; assay type: functional
[7] = tested on: MCF7; assay: Cytotoxicity against human MCF7 cells incubated for 72 hrs by resazurin staining based microplate reader assay; assay type: functional
[8] = tested on: DU-145; assay: Cytotoxicity against human DU-145 cells incubated for 72 hrs by resazurin staining based microplate reader assay; assay type: functional
[9] = tested on: Saccharomyces cerevisiae; assay: Antifungal activity against Saccharomyces cerevisiae ATCC 9763 assessed as fungal growth inhibition incubated for 48 hrs by bromocresol green staining based microplate reader assay; assay type: functional
[10] = tested on: Tritrichomonas foetus; assay: Antiprotozoal activity against Tritrichomonas foetus KV-1 strain assessed as inhibition of protozoal growth measured after 72 hrs under anaerobic conditions; assay type: functional
[11] = tested on: NFF; assay: Cytotoxicity against human NFF cells incubated for 72 hrs by resazurin staining based microplate reader assay; assay type: toxicity, cell-based
[12] = tested on: Penicillium brasilianum; assay: Antifungal activity against Penicillium brasilianum MST-FP1927 assessed as change in morphology at 20 ug by disc diffusion assay; assay type: functional, organism-based; conditions: dose 20.0 µg
[13] = tested on: Candida albicans; assay: Antifungal activity against Candida albicans ATCC 10231 assessed as fungal growth inhibition incubated for 48 hrs by bromocresol green staining based microplate reader assay; assay type: functional
[14] = tested on: Aspergillus nomiae; assay: Antifungal activity against Aspergillus nomius MST-FP2004 assessed as change in morphology at 20 ug by disc diffusion assay; assay type: functional, organism-based; conditions: dose 20.0 µg
[15] = tested on: Aspergillus nomiae; assay: Antifungal activity against Aspergillus nomius MST-FP2004 assessed as fungal growth rate at 20 ug by disc diffusion assay; assay type: functional, organism-based; conditions: dose 20.0 µg
[16] = tested on: Aspergillus nomiae; assay: Antifungal activity against Aspergillus nomius MST-FP2004 assessed as reduction in growth diameter at 20 ug by disc diffusion assay relative to control; assay type: functional; design: scale not given: the % may be the effect or the level left; conditions: dose 20 µg

Compound | MIC [1] [µg/mL] | MIC [2] [µg/mL] | MIC [3] [µg/mL] | LD99 [4] [µM] | Activity [5] | LD99 [6] [µM] | LD99 [7] [µM] | LD99 [8] [µM] | MIC [9] [µg/mL] | LD99 [10] [µM] | LD99 [11] [µM] | Activity [12] | MIC [13] [µg/mL] | Activity [14] | Activity [15] | Activity [16] [%]
GENTAMICIN | 0.38 | 0.38 | 0.81 | – | – | – | – | – | – | – | – | – | – | – | – | –
Cc1ncc([N+](=O)[O-])n1CCO [METRONIDAZOLE] | – | – | – | 9.1 | – | – | – | – | – | – | – | – | – | – | – | –
CCCCCCC/C=C/C1=CC(=O)[C@]2(O1)C(=O)N[C@@](C)(O)[C@H]2O | 50 (≈ 155 µM) | 25 (≈ 77.3 µM) | > 100 | 39 | inactive | 77 | >100 | 39 | > 100 | >100 | > 100 | inactive | > 100 | – | – | –
CO[C@@]12[C@H](COC(N)=O)C3=C(C(=O)C(C)=C(N)C3=O)N1C[C@@H]1N[C@@H]12 [MITOMYCIN] | – | – | – | – | – | 0.93 | – | – | – | – | – | – | – | – | – | –
COC(=O)c1oc(=O)c2c(O)c(C(=O)O)c(O)cc2c1O | > 100 | > 100 | > 100 | >100 | – | >100 | >100 | >100 | > 100 | >100 | > 100 | – | > 100 | inactive | inactive | –
CN[C@@H]1C[C@H]2O[C@@](C)([C@@H]1OC)n1c3ccccc3c3c4c(c5c6ccccc6n2c5c31)C(=O)NC4 [STAUROSPORINE] | – | – | – | – | – | – | 54 | 3.4 | – | 1.2 | 0.09 | – | – | – | – | –
COC(=O)c1oc(=O)c2c(O)c3c(O)c(C(C)=O)oc3cc2c1O | > 100 | 42 (≈ 126 µM) | > 100 | 37 | – | 7.8 | >100 | >100 | > 100 | 4.8 | > 100 | – | > 100 | inactive | inactive | ~7
C[C@@H]1[C@H](O)[C@@H](C)/C=C/C=C/C=C/C=C/C=C/C=C/C=C/[C@H](O[C@@H]2O[C@H](C)[C@@H](O)[C@H](N)[C@@H]2O)C[C@@H]2O[C@](O)(C[C@@H](O)C[C@@H](O)[C@H](O)CC[C@@H](O)C[C@@H](O)CC(=O)O[C@H]1C)C[C@H](O)[C@H]2C(=O)O [AMPHOTERICIN B] | – | – | – | – | – | – | – | – | 0.28 (≈ 0.303 µM) | – | – | – | 0.09 (≈ 0.0974 µM) | – | – | –
